Laboratory results from the supplement of paper PMC10307832.

What was measured:
Experiment in all cases: relative viability (nuclei count vs DMSO), 5 days (fraction); higher = more cells survive
[1] = compound: CCn1c(-c2nonc2N)nc2cnc(Oc3cccc(NC(=O)c4ccc(OCCN5CCOCC5)cc4)c3)cc21 + Nc1ncn([C@H]2C[C@H](O)[C@@H](CO)O2)c(=O)n1 [Decitabine] (partner 2 µM)
Summary of the method: (§1)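 Each reported value is a median over duplicate plates. It expresses relative viability: treated-well nuclei count divided by vehicle-well nuclei count. Lung cancer cell lines in 1536-well plates were dosed by pin tool a day after seeding, alone with one drug or with a fixed anchor-drug dose plus five library-drug doses (not always all listed) in √10 steps, and nuclei were counted after 5 days.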

Mirin + Palbociclib = compound: N=C1NC(=O)/C(=C/c2ccc(O)cc2)S1 [Mirin] + CC(=O)c1c(C)c2cnc(Nc3ccc(N4CCNCC4)cn3)nc2n(C2CCCC2)c1=O [Palbociclib] (partner 0.5 µM)
Summary of the method: as §1

[2] = compound: CCn1c(-c2nonc2N)nc2cnc(Oc3cccc(NC(=O)c4ccc(OCCN5CCOCC5)cc4)c3)cc21 + Cc1nc(NC(=O)N2CCC[C@H]2C(N)=O)sc1-c1ccnc(C(C)(C)C(F)(F)F)c1 [Alpelisib] (partner 2 µM)
Summary of the method: as §1

Mirin + Vorinostat = compound: N=C1NC(=O)/C(=C/c2ccc(O)cc2)S1 [Mirin] + O=C(CCCCCCC(=O)Nc1ccccc1)NO [Vorinostat] (partner 1 µM)
Summary of the method: as §1

| Cell Line | relative viability ([1]; first compound 0.04 µM) | relative viability ([1]; first compound 0.1265 µM) | relative viability ([1]; first compound 0.4 µM) | relative viability ([1]; first compound 1.265 µM) | relative viability ([1]; first compound 4 µM) | relative viability (Mirin + Palbociclib; first compound 0.25 µM) | relative viability (Mirin + Palbociclib; first compound 0.7906 µM) | relative viability (Mirin + Palbociclib; first compound 2.5 µM) | relative viability (Mirin + Palbociclib; first compound 7.906 µM) | relative viability (Mirin + Palbociclib; first compound 25 µM) | relative viability ([2]; first compound 0.04 µM) | relative viability ([2]; first compound 0.1265 µM) | relative viability ([2]; first compound 0.4 µM) | relative viability ([2]; first compound 1.265 µM) | relative viability ([2]; first compound 4 µM) | relative viability (Mirin + Vorinostat; first compound 0.25 µM) | relative viability (Mirin + Vorinostat; first compound 0.7906 µM) | relative viability (Mirin + Vorinostat; first compound 2.5 µM) | relative viability (Mirin + Vorinostat; first compound 7.906 µM) | relative viability (Mirin + Vorinostat; first compound 25 µM) |
| --- | --- | --- | --- | --- | --- | --- | --- | --- | --- | --- | --- | --- | --- | --- | --- | --- | --- | --- | --- | --- |
| 201T | 0.825 | 0.834 | 0.823 | 0.86 | 0.827 | 0.365 | 0.413 | 0.353 | 0.348 | 0.395 | 1.02 | 1.01 | 0.966 | 1.05 | 0.954 | 1.02 | 1.14 | 0.956 | 1.07 | 1.18 |
| PC-3 [JPC-3] | 0.803 | 0.764 | 0.764 | 0.655 | 0.725 | 0.596 | 0.574 | 0.551 | 0.524 | 0.631 | 1.1 | 1.02 | 1.01 | 1.07 | 1.05 | 0.919 | 0.722 | 0.81 | 0.86 | 1.18 |
| NCI-H838 | 0.422 | 0.393 | 0.303 | 0.331 | 0.271 | 0.25 | 0.232 | 0.232 | 0.234 | 0.236 | 0.654 | 0.467 | 0.484 | 0.406 | 0.332 | 0.773 | 0.751 | 0.765 | 0.802 | 0.82 |
| COR-L23 | 0.469 | 0.401 | 0.215 | 0.186 | 0.166 | 0.369 | 0.299 | 0.245 | 0.268 | 0.341 | 0.681 | 0.647 | 0.446 | 0.154 | 0.159 | 0.453 | 0.585 | 0.488 | 0.327 | 0.31 |
| HOP-62 | 0.226 | 0.215 | 0.23 | 0.211 | 0.202 | 0.465 | 0.536 | 0.46 | 0.381 | 0.458 | 1.11 | 1.01 | 0.925 | 0.824 | 1.01 | 0.669 | 0.527 | 0.679 | 0.411 | 0.603 |
| NCI-H1915 | 0.249 | 0.265 | 0.275 | 0.24 | 0.21 | 0.502 | 0.48 | 0.503 | 0.504 | 0.438 | 1.03 | 1.09 | 1.03 | 1.08 | 1.04 | 0.527 | 0.498 | 0.558 | 0.341 | 0.52 |
| BEN | 0.734 | 0.495 | 0.451 | 0.373 | 0.489 | 0.485 | 0.468 | 0.423 | 0.424 | 0.426 | 1.06 | 1.03 | 0.787 | 0.326 | 0.329 | 0.473 | 0.58 | 0.6 | 0.555 | 0.542 |
| NCI-H1437 | 0.489 | 0.61 | 0.547 | 0.499 | 0.426 | 0.358 | 0.32 | 0.292 | 0.318 | 0.327 | 1.06 | 0.888 | 0.833 | 0.809 | 0.753 | 0.88 | 0.955 | 0.875 | 0.896 | 1.02 |
| EMC-BAC-2 | 0.957 | 0.894 | 0.771 | 0.386 | 0.465 | 0.485 | 0.515 | 0.52 | 0.4 | 0.502 | 0.872 | 0.732 | 0.8 | 0.729 | 0.75 | 0.426 | 0.402 | 0.493 | 0.35 | 0.6 |
| NCI-H2087 | 0.321 | 0.324 | 0.285 | 0.289 | 0.315 | 0.227 | 0.297 | 0.249 | 0.133 | 0.318 |  | 0.767 | 0.886 | 0.838 | 0.524 | 0.661 | 0.748 | 0.729 | 0.573 | 0.774 |
| NCI-H650 | 0.288 | 0.318 | 0.301 | 0.237 | 0.32 | 0.306 | 0.399 | 0.333 | 0.265 | 0.38 | 1.31 | 0.893 | 0.745 | 0.434 | 0.492 | 0.484 | 0.338 | 0.414 | 0.389 | 0.448 |
| LXF-289 | 0.359 | 0.403 | 0.353 | 0.384 | 0.318 | 0.585 | 0.648 | 0.591 | 0.623 | 0.701 | 1.1 | 1.12 | 1 | 0.96 | 0.941 | 0.727 | 0.818 | 0.713 | 0.8 | 0.836 |
| LOU-NH91 | 0.794 | 0.698 | 0.65 | 0.561 | 0.533 | 0.548 | 0.569 | 0.529 | 0.519 | 0.555 | 0.759 | 0.619 | 0.652 | 0.55 | 0.566 | 0.908 | 0.902 | 1 | 0.843 | 1.16 |
| NCI-H2347 | 0.607 | 0.565 | 0.624 | 0.461 | 0.434 | 0.444 | 0.465 | 0.506 | 0.422 | 0.436 | 1.12 | 1.06 | 0.906 | 0.511 | 0.588 | 0.569 | 0.645 | 0.641 | 0.494 | 0.66 |
| NCI-H1993 | 0.557 | 0.616 | 0.652 | 0.496 | 0.531 | 0.614 | 0.281 | 0.586 | 0.524 | 0.543 | 0.758 | 0.77 |  | 0.719 | 0.668 | 1.07 | 0.627 | 0.89 | 0.947 | 0.737 |
| HCC-827 | 0.343 | 0.397 | 0.328 | 0.305 | 0.318 | 0.524 | 0.37 | 0.459 | 0.439 | 0.418 | 1.11 | 0.973 | 0.996 | 1.07 | 0.947 | 0.184 | 0.863 | 0.937 | 0.828 | 0.987 |
